Assay [1] has as its system mouse spleen cells (T cells and B cells). Kind of assay: spleen cell proliferation caused by antigen stimulation (BrdU incorporation ELISA). In kind it is cell-based. To be noted: BL 10 nM; antigen 10 µg/mL of ovalbumin; cultured for 3 days; spleen cells of ovalbumin/aluminum hydroxide immunised BALB/c mouse; FIG. 1. The protocol: The effect of BL on the spleen cell proliferation caused by an antigen stimulation was examined.
A mixed solution (0.2 mL) of […] of ovalbumin (Sigma-Aldrich Corporation) and 4 mg of aluminum hydroxide (Thermo Scientific Pierce Protein Research Products) was intraperitoneally administered to a BALB/c mouse (female, 8 to 12 weeks old) and the spleen was collected 2 weeks later. Cells were isolated from the spleen and cultured in RPMI-1640 medium containing 10% fetal bovine serum (Cansera International Inc.), 5×10^−5M β-mercaptoethanol (Wako Pure Chemical Industries, Ltd.), 20 U/mL penicillin (Meiji Seika Kaisha, Limited) and 100 μg/mL streptomycin (Meiji Seika Kaisha, Limited) at 37° C. under the presence of 5% CO2. Cells to which BL (Brassino Co., Ltd.) was added in a concentration of 10 nM and cells to which BL was not added were respectively stimulated by an antigen ([…] of ovalbumin), cultured for 3 days and measured for the incorporated BrdU in the detection of proliferating spleen cells using a cell proliferation ELISA BrdU colorimetric kit (Roche Applied Science).
(Dividing cells build labelled thymidine or BrdU into new DNA.)

The subject of the next assay is BALB/c mouse. Put plainly: antigen (ovalbumin) specific antibody (IgG) production in mouse, serum ELISA. The class given is in vivo. To be noted: BL 0.2, 1 and 5 mg/Kg of body weight intraperitoneally every other day; serum 2 weeks later; absorbance at 450 nm; FIG. 2. The protocol: A mixed solution (0.2 mL) of […] of ovalbumin (Sigma-Aldrich Corporation) and 4 mg of aluminum hydroxide (Thermo Scientific Pierce Protein Research Products) was intraperitoneally administered to a BALB/c mouse (female, 8 to 12 weeks old) and BL dissolved in 0.2 mL PBS (0, 0.2, 1 and 5 mg/Kg of body weight) was intraperitoneally administered every other day. The serum was isolated 2 weeks later and measured for the production of immunoglobulin (IgG) specific to the antigen (ovalbumin) using ELISA. ELISA was carried out using a biotinylated anti-mouse IgG antibody (Southern Biotechnology Associates Inc.) as the secondary antibody, streptavidin-HRP (Prozyme, Inc.) and a TMB Microwell Peroxidase Substrate (Kirkegaard & Perry Laboratories, Inc.) as the colorimetric substrate, and the absorbance at 450 nm was measured.
Background: An ELISA detects its analyte on a solid surface through an enzyme-linked reagent.

The subject of assay [2] is macrophages. Put plainly: cytokine mRNA expression in macrophages stimulated with R848 (real time PCR). The class given is cell-based, mouse. To be noted: 10 nM BL for 15 minutes, then R848 stimulation, RNA 1 hour later, relative to HPRT mRNA. The protocol:
3 mL of 3% thioglycolate medium (Difco Laboratories) was intraperitoneally administered to a BALB/c mouse (female, 8 to 12 weeks age), peritoneal cells were collected 3 days later and cultured in RPMI-1640 medium containing 10% fetal bovine serum (Cansera International Inc.), 5×10^−5M β-mercaptoethanol (Wako Pure Chemical Industries, Ltd.), 20 U/mL penicillin (Meiji Seika Kaisha, Limited) and 100 μg/mL streptomycin (Meiji Seika Kaisha, Limited) at 37° C. under the presence of 5% CO2. After culturing 1×10^6/mL of the peritoneal cells for 3 hours in a 6-well plate (2 mL/well), non-adherent cells were removed and adherent cells were tested as the macrophages. The macrophages were cultured for 15 minutes in the presence or absence of 10 nM BL, subsequently stimulated with R848 (InvivoGen) or LPS (Sigma-Aldrich Corporation) 100 ng/mL, and the RNA was collected 1 hour later using Rneasy Mini Kit (QIAGEN K. K.). Using a Primescript RT reagent kit (TAKARA BIO INC.), cDNA was synthesized from […] of the isolated RNA in accordance with the attached protocol and the real time PCR was carried out using Thermal Cycler Dice Real Time System II (TAKARA BIO INC.) to examine the changes of cytokine (IFN-α, IFN-β, IL-12 subunit p35, IL-12 subunit p40, TNF-α) mRNA expression. […]
On the technique in general: In qPCR the cycle at which signal appears reflects the starting amount.

Assay [3] concerns macrophages. Kind of assay: cytokine mRNA expression in macrophages stimulated with LPS (real time PCR). To be noted: 10 nM BL for 15 minutes, then LPS stimulation, RNA 1 hour later, relative to HPRT mRNA. In kind it is cell-based, mouse. The protocol:
3 mL of 3% thioglycolate medium (Difco Laboratories) was intraperitoneally administered to a BALB/c mouse (female, 8 to 12 weeks age), peritoneal cells were collected 3 days later and cultured in RPMI-1640 medium containing 10% fetal bovine serum (Cansera International Inc.), 5×10^−5M β-mercaptoethanol (Wako Pure Chemical Industries, Ltd.), 20 U/mL penicillin (Meiji Seika Kaisha, Limited) and 100 μg/mL streptomycin (Meiji Seika Kaisha, Limited) at 37° C. under the presence of 5% CO2. After culturing 1×10^6/mL of the peritoneal cells for 3 hours in a 6-well plate (2 mL/well), non-adherent cells were removed and adherent cells were tested as the macrophages. The macrophages were cultured for 15 minutes in the presence or absence of 10 nM BL, subsequently stimulated with R848 (InvivoGen) or LPS (Sigma-Aldrich Corporation) 100 ng/mL, and the RNA was collected 1 hour later using Rneasy Mini Kit (QIAGEN K. K.). Using a Primescript RT reagent kit (TAKARA BIO INC.), cDNA was synthesized from […] of the isolated RNA in accordance with the attached protocol and the real time PCR was carried out using Thermal Cycler Dice Real Time System II (TAKARA BIO INC.) to examine the changes of cytokine (IFN-α, IFN-β, IL-12 subunit p35, IL-12 subunit p40, TNF-α) mRNA expression.
The mRNA amounts are shown for IFN-α in FIG. 3, IFN-β in FIG. 4, IL-12 subunit p35 in FIG. 5, IL-12 subunit p40 in FIG. 6 and TNF-α in FIG. 7. The mRNA amount in each Figure is indicated as the relative amount to the mRNA amount of HPRT, which is the housekeeping gene.

This note sets out measurements from US20120165553A1, “IMMUNOSTIMULANT” (RIKEN, priority 2010, published 2012).

`CC(C)[C@H](C)[C@@H](O)[C@H](O)[C@@H](C)[C@H]1CC[C@H]2[C@@H]3COC(=O)[C@H]4C[C@H](O)[C@H](O)C[C@]4(C)[C@H]3CC[C@]12C` [BL, Brassinolide]: in assay [1], the “spleen cell proliferation induced by the antigen stimulation (incorporated BrdU)” value is on record as “significantly promoted”. Besides, the “antigen specific antibody (IgG) production induced by ovalbumin and aluminum hydroxide” value in the assay on BALB/c mouse is “significantly promoted”. Further, the “IFN-α mRNA expression induction” value with macrophages [2] (FIG. 3) was “enhancing”. Moreover, in the assay with macrophages [2] (FIG. 4), the “IFN-β mRNA expression induction” value is reported as “enhancing”. Also, in the assay on macrophages [3] (FIG. 5), the “IL-12 p35 mRNA expression induction” value is “enhancing”. Also, the “IL-12 p40 mRNA expression induction” value with macrophages [3] (FIG. 6) is listed as “enhancing”. Further, the “TNF-α mRNA expression induction” value in the assay with macrophages [3] (FIG. 7) was “enhancing”.
